From patent US20260041653A1, “AN HDAC INHIBITOR FOR TREATING CANCER WITH A MODIFIED STK11 ACTIVITY OR EXPRESSION” (Tango Therapeutics, Inc., priority 2022, published 2026)

How the values were obtained:
[1] = tested on: MC38_sgStk11 tumor; assay: Re-challenge of survived animals of Example 1 with MC38_sgStk11 cells; assay type: in vivo, Mus musculus; conditions: off-treatment
Procedure: Summary: A re-challenge study of Example 1 was performed to evaluate whether the survived animals from Example 1 had acquired T memory against the same tumor.
Experimental Design & Materials: The survived animals of the efficacy part were re-challenged with MC38_sgStk11 cells respectively in the opposite side of primary tumors.
The MC38_sgStk11 tumor cells were maintained in vitro as a monolayer culture in DMEM+2 mM glutamine supplemented with about 10% heat inactivated fetal bovine serum, 100 U/ml penicillin and 100 μg/ml streptomycin at about 37° C. in an atmosphere of about 5% CO2 in air. The tumor cells were routinely sub-cultured twice weekly by trypsin-EDTA treatment. The cells growing in an exponential growth phase were harvested and counted for tumor inoculation.
Mice were inoculated subcutaneously at the left lower flank with MC38_sgStk11 tumor cells (0.5×106) in 0.1 ml of PBS for tumor development. The animal numbers and the cell numbers for each group are shown in the experimental design (Table 2-1). The survived animals from the Example 1 were under post-treatment monitoring for 21 days before re-challenge.
All the procedures related to animal handling, care and the treatment in the study were performed according to the guidelines approved by the Institutional Animal Care and Use Committee (IACUC) of vendor following the guidance of the Association for Assessment and Accreditation of Laboratory Animal Care (AAALAC). At the time of routine monitoring, the animals were daily checked for any effects of tumor growth and treatments on normal behavior such as mobility, food and water consumption, body weight gain/loss (body weights were measured twice per week), eye/hair matting and any other abnormal effect as stated in the protocol. Death and observed clinical signs were recorded on the basis of the numbers of animals within each subset.
Tumor size was measured three times per week in […] using a caliper, and the volume was expressed in mm3 using the formula: V=0.5 a×b2 where a and b are the long and short diameters of the tumor, respectively.

[2] = biological target: T1, HDAC6 (Homo sapiens, UniProt Q9UBN7); assay: Cellular NanoBRET assay, HDAC6; assay type: cell-based
T1 construct: expressed in transfected cells

[3] = tested on: STK11-null 3LL tumor; assay: Anti-tumor efficacy in PD-1 resistant STK11-null 3LL model; assay type: in vivo; conditions: Compound I 75 mg/kg, Anti-PD1 10 mg/kg
Procedure: An in vivo anti-tumor efficacy of double combination treatment of Anti-PD1 and Compound I in a PD-1 resistant STK11-null 3LL model was performed. The parental (non STK11KO) 3LL line is relatively resistant to anti-PD1 treatment.
The animals (8/group) were divided into 4 groups: Group I was treated with a control antibody Anti-IgG2, group 2 was treated with anti-PD1 antibody, group 3 was treated with Compound I 75 mg/kg, and group 4 was treated with Compound 1 75 mg/kg and anti-PD1 antibody. Tumor volume and survival was monitored over the course of treatment. The tumor volume and survival was plotted by treatment group (FIG. 17A and FIG. 17B, respectively). The combination treatment with Compound I decreased the PD-1 resistance of this model caused by the SKT11 knockout to the baseline characteristic of the parental line as shown by Group 4's decreased tumor volume and increased survival over time compared to the other groups.

[4] = Pharmacokinetics in cynomolgus monkeys; assay type: in vivo; conditions: cynomolgus monkey, plasma
Procedure: The PK of Compound I in male cynomolgus monkeys was determined in plasma following single IV bolus and PO administration to non-naïve male cynomolgus s monkeys The vehicle used for IV was 20% wt/vol HPβCD, 1% vol/vol DMSO in saline and for PO was in 0.5% MC (suspension). Plasma samples were collected from 3 animals/group at 0.083, 0.25, 0.5, 1, 3, 6, 9, 12, 24, and 48 hours after dosing.

[5] = biological target: CYP2D6 (Homo sapiens, UniProt P10635); assay: Metabolism by recombinant human CYP2D6; assay type: in vitro ADME; conditions: read-out: terminal half life (T1/2), rh CYP2D6
Procedure: Drug metabolizing enzymes involved in the biotransformation of Compound I were investigated using human liver microsomes (HLM) and recombinant enzymes. Compound I was stable in HLMs (>93% remaining after 240 minutes of incubation with HLM protein concentration at 0.6 mg/ml). CYP selective inhibitor experiments were not performed due to lack of appreciable Compound I turnover.

[6] = logD7.4; assay type: physicochemical; conditions: pH 7.4
[7] = tested on: H3K9Ac; assay: H3K9Ac in MC38 tumor tissue by Western blot; assay type: in vivo, mouse; conditions: 3, 10, 30 mg/kg for 7 days; tissue 8 hours post last dose; normalized to total histone H3
Procedure: Formation and accumulation of acetylated histone 3 lysine 9 (H3K9Ac) in MC38 tumor tissue from mouse after treatment with Compound I was determined by Western blot. Briefly, female C57BL/6 mice with MC38 tumors were treated with Compound I for 7 days at the indicated dose (3 mg/kg, 10 mg/kg, and 30 mg/kg). Tissue was collected 8 hours post last dose and the H3K9Ac accumulation was quantified by Western blot in (FIG. 14A) and normalized to total histone H3 (FIG. 14B).

[8] = tested on: cytokines and antigen presentation genes; assay: Nanostring PanCancer IO 360 cytokine and HLA gene profiling of STK11-/- MC38; design: species or system mouse; conditions: 30 mg/kg for 7 days in vivo; 0.2 uM for 4 days in vitro
Procedure: The cytokine expression of tumors from mice treated with Compound I was determined by Nanostring PanCancer IO 360 analysis.
Briefly, STK11−/− MC38 tumors from mice treated for 7 days with 30 mg/kg of Compound I or anti-PD1 antibody alone or in combination were collected 8 hours post last dose. The gene expression profiles of CXCL9, CXCL10, and CXCL11 of the tumors were determined by Nanostring PanCancer IO 360 (FIG. 9A). Additionally, the gene expression profiles of Treg-recruiting chemokines CCL1 and CCL22 of the tumors were determined by Nanostring PanCancer IO 360 (FIG. 9B).
STK11-deficient MC38 cells were also profiled for HLA gene expression by Nanostring IO360 panel in vitro after 4 days of treatment with Compound I at 0.2 uM compared to DMSO solvent control (FIG. 9C).

T1 sequence (Q9UBN7 whole entry): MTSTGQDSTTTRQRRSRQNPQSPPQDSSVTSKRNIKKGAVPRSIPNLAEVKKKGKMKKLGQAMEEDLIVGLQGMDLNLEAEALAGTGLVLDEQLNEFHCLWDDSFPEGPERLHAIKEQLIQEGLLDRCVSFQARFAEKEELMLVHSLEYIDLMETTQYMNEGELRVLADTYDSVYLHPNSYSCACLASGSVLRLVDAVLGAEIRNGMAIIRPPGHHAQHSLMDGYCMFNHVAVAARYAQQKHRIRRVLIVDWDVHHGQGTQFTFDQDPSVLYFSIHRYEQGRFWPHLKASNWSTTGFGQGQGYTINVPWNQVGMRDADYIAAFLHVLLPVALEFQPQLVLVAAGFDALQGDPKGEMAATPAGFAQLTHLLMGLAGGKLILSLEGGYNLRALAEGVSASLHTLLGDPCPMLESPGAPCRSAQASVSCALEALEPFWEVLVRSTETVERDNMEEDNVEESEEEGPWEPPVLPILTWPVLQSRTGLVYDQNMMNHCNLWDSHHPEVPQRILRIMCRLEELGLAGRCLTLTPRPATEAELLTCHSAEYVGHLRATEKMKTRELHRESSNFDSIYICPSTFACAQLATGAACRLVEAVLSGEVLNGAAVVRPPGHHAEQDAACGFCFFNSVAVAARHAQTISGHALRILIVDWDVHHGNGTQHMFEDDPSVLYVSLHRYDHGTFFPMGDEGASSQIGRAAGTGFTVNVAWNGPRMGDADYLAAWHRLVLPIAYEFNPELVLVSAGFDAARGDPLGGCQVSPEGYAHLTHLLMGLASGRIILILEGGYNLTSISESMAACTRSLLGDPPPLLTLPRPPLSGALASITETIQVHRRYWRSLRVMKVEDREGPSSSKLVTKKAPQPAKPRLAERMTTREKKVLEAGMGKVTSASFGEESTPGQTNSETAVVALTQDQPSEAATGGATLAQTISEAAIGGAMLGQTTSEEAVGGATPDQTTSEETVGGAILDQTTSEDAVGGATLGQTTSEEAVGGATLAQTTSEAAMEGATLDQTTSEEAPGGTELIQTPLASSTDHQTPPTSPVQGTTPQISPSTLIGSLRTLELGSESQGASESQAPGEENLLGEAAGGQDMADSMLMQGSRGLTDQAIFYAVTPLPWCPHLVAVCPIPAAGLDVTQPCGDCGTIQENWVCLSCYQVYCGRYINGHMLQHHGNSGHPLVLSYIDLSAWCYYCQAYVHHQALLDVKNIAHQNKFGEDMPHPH
CYP2D6, sequence (P10635 whole entry): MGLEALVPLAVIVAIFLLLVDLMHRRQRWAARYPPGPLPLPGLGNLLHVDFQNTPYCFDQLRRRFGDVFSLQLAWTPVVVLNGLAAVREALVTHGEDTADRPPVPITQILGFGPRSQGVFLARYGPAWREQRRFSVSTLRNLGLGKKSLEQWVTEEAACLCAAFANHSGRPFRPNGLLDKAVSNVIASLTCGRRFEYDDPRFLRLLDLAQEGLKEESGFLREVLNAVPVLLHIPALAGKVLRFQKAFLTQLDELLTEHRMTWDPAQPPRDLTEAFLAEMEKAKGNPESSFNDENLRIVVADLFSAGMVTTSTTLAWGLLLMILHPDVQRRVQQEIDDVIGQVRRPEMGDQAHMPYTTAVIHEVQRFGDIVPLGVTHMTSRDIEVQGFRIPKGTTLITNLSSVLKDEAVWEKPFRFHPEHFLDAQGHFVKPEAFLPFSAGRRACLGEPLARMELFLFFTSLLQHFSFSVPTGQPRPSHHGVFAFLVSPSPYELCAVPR

## C[S@@](=N)(=O)c1ccc(C(=O)Nc2cc(-c3ccc(F)cc3)ccc2N)cc1 [Compound I, (R)—N-(4-amino-4′-fluoro-[1,1′-biphenyl]-3-yl)-4-(S-methylsulfonimidoyl)benzamide]
[1]; Re-challenge Gr 2: survivor of Ex. 1 Gr. 5 (Anti-IgG2a + Compound I 75 mg/kg), day 0 after cell inoculation
  Tumor Volume after re-challenge: 0 mm^3
[1]; Re-challenge Gr 2: survivor of Ex. 1 Gr. 5 (Anti-IgG2a + Compound I 75 mg/kg), day 3 after cell inoculation
  Tumor Volume after re-challenge: 17 mm^3
[1]; Re-challenge Gr 2: survivor of Ex. 1 Gr. 5 (Anti-IgG2a + Compound I 75 mg/kg), day 5 after cell inoculation
  Tumor Volume after re-challenge: 25 mm^3
[1]; Re-challenge Gr 2: survivor of Ex. 1 Gr. 5 (Anti-IgG2a + Compound I 75 mg/kg), day 8 after cell inoculation
  Tumor Volume after re-challenge: 6 mm^3
[1]; Re-challenge Gr 2: survivor of Ex. 1 Gr. 5 (Anti-IgG2a + Compound I 75 mg/kg), day 10 after cell inoculation
  Tumor Volume after re-challenge: 0 mm^3
[1]; Re-challenge Gr 2: survivor of Ex. 1 Gr. 5 (Anti-IgG2a + Compound I 75 mg/kg), day 12 after cell inoculation
  Tumor Volume after re-challenge: 0 mm^3
[1]; Re-challenge Gr 2: survivor of Ex. 1 Gr. 5 (Anti-IgG2a + Compound I 75 mg/kg), day 15 after cell inoculation
  Tumor Volume after re-challenge: 0 mm^3
[1]; Re-challenge Gr 2: survivor of Ex. 1 Gr. 5 (Anti-IgG2a + Compound I 75 mg/kg), day 17 after cell inoculation
  Tumor Volume after re-challenge: 0 mm^3
[1]; Re-challenge Gr 2: survivor of Ex. 1 Gr. 5 (Anti-IgG2a + Compound I 75 mg/kg), day 19 after cell inoculation
  Tumor Volume after re-challenge: 0 mm^3
[1]; Re-challenge Gr 7: survivors of Ex. 1 Gr. 12 (head prints Anti-IgG2a + Compound I 150 mg/kg D0-D4, 100 mg/kg D5-D48), day 0 after cell inoculation
  Tumor Volume after re-challenge: 0 ± 0 mm^3
[1]; Re-challenge Gr 7: survivors of Ex. 1 Gr. 12 (head prints Anti-IgG2a + Compound I 150 mg/kg D0-D4, 100 mg/kg D5-D48), day 3 after cell inoculation
  Tumor Volume after re-challenge: 27 ± 2 mm^3
[1]; Re-challenge Gr 7: survivors of Ex. 1 Gr. 12 (head prints Anti-IgG2a + Compound I 150 mg/kg D0-D4, 100 mg/kg D5-D48), day 5 after cell inoculation
  Tumor Volume after re-challenge: 27 ± 1 mm^3
[1]; Re-challenge Gr 7: survivors of Ex. 1 Gr. 12 (head prints Anti-IgG2a + Compound I 150 mg/kg D0-D4, 100 mg/kg D5-D48), day 8 after cell inoculation
  Tumor Volume after re-challenge: 6 ± 0 mm^3
[1]; Re-challenge Gr 7: survivors of Ex. 1 Gr. 12 (head prints Anti-IgG2a + Compound I 150 mg/kg D0-D4, 100 mg/kg D5-D48), day 10 after cell inoculation
  Tumor Volume after re-challenge: 0 ± 0 mm^3
[1]; Re-challenge Gr 7: survivors of Ex. 1 Gr. 12 (head prints Anti-IgG2a + Compound I 150 mg/kg D0-D4, 100 mg/kg D5-D48), day 12 after cell inoculation
  Tumor Volume after re-challenge: 0 ± 0 mm^3
[1]; Re-challenge Gr 7: survivors of Ex. 1 Gr. 12 (head prints Anti-IgG2a + Compound I 150 mg/kg D0-D4, 100 mg/kg D5-D48), day 15 after cell inoculation
  Tumor Volume after re-challenge: 0 ± 0 mm^3
[1]; Re-challenge Gr 7: survivors of Ex. 1 Gr. 12 (head prints Anti-IgG2a + Compound I 150 mg/kg D0-D4, 100 mg/kg D5-D48), day 17 after cell inoculation
  Tumor Volume after re-challenge: 0 ± 0 mm^3
[1]; Re-challenge Gr 7: survivors of Ex. 1 Gr. 12 (head prints Anti-IgG2a + Compound I 150 mg/kg D0-D4, 100 mg/kg D5-D48), day 19 after cell inoculation
  Tumor Volume after re-challenge: 0 ± 0 mm^3
[2]
  IC50: > 30 µM
[3]
  Median TTE: 18 days
[4]; po, male cynomolgus monkeys, suspension at 3 mg/kg, fed, read-out: PO bioavailability (% F)
  bioavailability: 83%
[4]; male
  half-life: 6.8 h
[4]; male, intravenous, read-out: CL, p
  clearance: 9.4 mL/min/kg
[5]
  half-life: > 1 h
[6]
  logD7.4: 1.9
[7]
  H3K9Ac accumulation in MC38 tumor tissue: dose dependent accumulation of H3K9Ac
[8]
  immune evasion; expression of cytokines and antigen presentation genes: reverses immune evasion on tumor cells
